Here are results for three compounds from EP2952182A1, “Compounds and methods for increasing the immune response to papillomavirus” (Universitätsklinikum Heidelberg, priority 2014, dated 2015).

One test concerns Caski cells. The test can be described thus: CD107a mobilization (degranulation) assay of L1-stimulated T cells against pretreated Caski cells. Type of test: cell-based. As for the experimental part: PBMCs were obtained from blood of a healthy, HLA-A*0201 positive donor by density gradient centrifugation with lymphocyte separation medium (PAA, Pasching, Austria). PBMCs were resuspended in RPMI medium (Gibco, Paisley, UK), containing 5% human serum and seeded in cell culture flasks. After 4 hours of adherence at 37°C the non-adherent cells were removed. To stimulate the differentiation of monocytes into dendritic cells, the adherent fraction of cells was cultured in CellGro Medium (CellGenix, Freiburg, Germany) containing GM-CSF (1000 U/ml, Promokine, Heidelberg, Germany) and IL-4 (666,7 U/ml, Promokine, Heidelberg, Germany) for 5-7 days. Then, IL-4 and GM-CSF were added again together with a terminal differentiation-inducing cocktail containing the proinffammatory cytokines IL-6 (1000 U/ml Promokine, Heidelberg, Germany), IL-1β (10 ng/ml Promokine, Heidelberg, Germany), PGE-2 ([…], Promokine, Heidelberg, Germany) and TNF-α (10 ng/ml, Promokine, Heidelberg, Germany) were added and cells were incubated overnight. […]
To monitor the degranulation of L1-stimulated T cells (effectors) induced by Caski cells (targets), Caski cells pretreated with different concentrations of 5-Aza-2'-deoxycytidine (0.1 µM and 1.0 µM) for 12 days or untreated cells were used. […] Degranulation rate was measured as the fraction of CD107a/CD8 double staining cells relative to total CD8 positive cells (Fig. 5).

In the next test the test system is HPV16 L1 protein. The test can be described thus: Detection of HPV L1 capsid protein by immunoblotting (Western blot) in treated Caski cells. Type of test: cell-based. The note with it: Caski cells treated for 28 days, band at approximately 55 kDa, anti HPV16 L1 polyclonal rabbit antibodies, Fig. 4. As for the experimental part:
5-aza-2'-deoxycytidine was added daily to cultures of Caski cells at concentrations […]. Caski cells were cultured with medium changed every 24 hours. Treatments were stopped at day 28 and the cells were grown in the absence of drugs for […]. The same culture conditions were used for untreated and DMSO treated Caski cells. Samples were collected on days 7, 14, 21, 28 and 38 for genomic DNA and total RNA purifications.
Protein extracts were also obtained from Caski cells on days 7, 14, 21, 28 and 38 of treatment. Cells were lysed in RIPA buffer containing Protease Inhibitor Cocktail (Sigma). Whole-cell lysates were prepared in denaturing SDS sample buffer and subjected to 12% SDS-PAGE. Proteins were transferred to PVDF Membrane (Invitrogen) and the blots were blocked with 5% non-fat dry milk in TBS-T buffer. The anti HPV16 L1 polyclonal rabbit antibodies (kindly provided by Dr Martin Muller, DKFZ, Germany) were used to detect the HPV16 L1 protein. Horseradish peroxidase conjugated secondary antibodies (1:2000 dilution, Anti-rabbit IgG, HRP-linked Antibody #7074 (Cell Signaling) were detected using Western Blotting Chemiluminescence Luminol Reagent (Santa Cruz).
For orientation: A western blot detects proteins with antibodies after separation by electrophoresis.

The subject of another test is cancer cell lines. To be noted: low-dose treatment; cited from earlier work.

As for `Nc1ncn([C@H]2C[C@H](O)[C@@H](CO)O2)c(=O)n1` [5-aza-2'-deoxycytidine], the “fraction of T cells undergoing degranulation (CD107a/CD8 double staining cells relative to total CD8 positive cells)” value with Caski cells (Caski cells pretreated with 0.1 µM and 1.0 µM for 12 days vs untreated, effectors and targets 1:1, 5 hours, Fig. 5) is “increased”. In addition, in the test with HPV16 L1 protein, the “L1 protein expression level” value is recorded as “Significant increase”.
As for `Nc1ncn([C@@H]2O[C@H](CO)[C@@H](O)[C@H]2O)c(=O)n1` [5-azacytidine], the “expression of immune-related genes” value in the test with cancer cell lines was “leads to expression of immune-related genes”.
Regarding `Nc1ncn([C@@H]2O[C@H](CO)[C@@H](O)[C@H]2O)c(=O)n1` [azacitidine], the “cytolytic activity of T-cells stimulated in vitro with L1-derived peptides towards Caski cells” value in the test on Caski cells (treated Caski cells expressing the L1-antigen, degranulation rate, Fig. 5 legend) was “Enhanced”.
